Like-named read-outs stand apart in the source and are kept apart here.
Legend:
[1] = Growth performance of broiler chickens, floor pen trial over five weeks (Example 6); format: in vivo; settings: for numerical improvement of weight gain compared to the control: day 1 to day 36
From the text: The objective of the present trial (Trial A) was to evaluate the effects of sucinic acid on the growth performance of broiler chickens in a floor pen trial over five weeks. Succinic acid was supplemented at four different dose levels. […] Each group was placed in one floor pen littered with wood shavings and allocated to one of the different treatments. Each treatment was replicated with 4 groups per sex. Birds had ad libitum access to feed and tap water. […] Chickens received diets based on soybean meal, and wheat as main ingredients (Table 6). […] The target quantities of succinic acid were added on top to the feed, mixed with appropriate amounts of maize starch as a carrier: […] For the statistical evaluation of the data, a one-factorial analysis of variance for each diet (factor: treatment) was carried out. Where significant treatment effects (p<0.05) were indicated, the differences among treatment means were subsequently analyzed with the Newman-Keuls test.

Clostridium perfringens = test: microbe, parasite or virus in culture; format: cell-based
[2] = for Daily feed intake / Live weight of piglets: dietary inclusion 1.0%
[3] = 0.5% in diet, 29 days
[4] = tested on: commensal Escherichia coli; test: microbe, parasite or virus in culture
[5] = tested on: Salmonella enterica subsp enterica serovar Enteritidis; test: microbe, parasite or virus in culture
[6] = tested on: Salmonella enterica subsp enterica serovar Typhimurium; test: microbe, parasite or virus in culture
Enterococcus faecalis = test: microbe, parasite or virus in culture

In the case of `COC[C@H]1O[C@@H](OC2OC[C@@H]3O[C@]4(O[C@H]3[C@H]2OC(=O)C(C)C)O[C@H](C)[C@@](O)(C(C)=O)[C@@H]2OCO[C@H]24)[C@@H](OC)[C@@H](O)[C@@H]1O[C@@H]1O[C@H](C)[C@H](OC)[C@H](O[C@H]2C[C@@]3(C)OC4(C[C@@H](O)[C@H](O[C@H]5C[C@@H](O)[C@H](OC(=O)c6c(C)c(Cl)c(O)c(Cl)c6OC)[C@@H](C)O5)[C@@H](C)O4)O[C@@H]3[C@@H](C)O2)[C@H]1O` (stereo partly drawn) [Avilamycin, reference compound], the Feed conversion ([1]; Day 1-22, 10 mg/kg feed) was 1.462^A g feed/g gain, the “Feed conversion, relative to control (100)” value ([1]; Day 1-22, 10 mg/kg feed) was 101.0 and the Feed intake ([1]; Day 1-22, 10 mg/kg feed) was 1450^A g. For the same compound, the Weight gain ([1]; Day 1-22, 10 mg/kg feed) was 992^BC g, the “Weight gain, relative to control (100)” value ([1]; Day 1-22, 10 mg/kg feed) was 104.1 and the Feed conversion ([1]; Day 1-36, 10 mg/kg feed) was 1.638^A g feed/g gain. For the same compound, the “Feed conversion, relative to control (100)” value ([1]; Day 1-36, 10 mg/kg feed) was 100.9, the Feed intake ([1]; Day 1-36, 10 mg/kg feed) was 3860^A g and the Weight gain ([1]; Day 1-36, 10 mg/kg feed) was 2359^A g. For the same compound, the “Weight gain, relative to control (100)” value ([1]; Day 1-36, 10 mg/kg feed) was 102.5, the Feed conversion ([1]; Day 22-36, 10 mg/kg feed) was 1.769^A g feed/g gain and the “Feed conversion, relative to control (100)” value ([1]; Day 22-36, 10 mg/kg feed) was 101.1. The Feed intake ([1]; Day 22-36, 10 mg/kg feed) was 2412^A g, the Weight gain ([1]; Day 22-36, 10 mg/kg feed) was 1366^A g and the “Weight gain, relative to control (100)” value ([1]; Day 22-36, 10 mg/kg feed) was 101.4.

In the case of `O=C(O)CCC(=O)O` [Succinic acid, succinic acid], the MIC90 (Clostridium perfringens) was < 31.2 mM, the Feed conversion ([1]; Day 1-22, 2.5 g/kg feed) was 1.365^B g feed/g gain and the Feed intake ([1]; Day 1-22, 2.5 g/kg feed) was 1427^A g. For the same compound, the Weight gain ([1]; Day 1-22, 2.5 g/kg feed) was 1046^A g, the Feed conversion ([1]; Day 1-22, 5 g/kg feed) was 1.461^A g feed/g gain and the Feed intake ([1]; Day 1-22, 5 g/kg feed) was 1446^A g. For the same compound, the Weight gain ([1]; Day 1-22, 5 g/kg feed) was 991^BC g, the Feed conversion ([1]; Day 1-22, 7.5 g/kg feed) was 1.372^B g feed/g gain and the Feed intake ([1]; Day 1-22, 7.5 g/kg feed) was 1445^A g. The Weight gain ([1]; Day 1-22, 7.5 g/kg feed) was 1054^A g, the Feed conversion ([1]; Day 1-22, 10 g/kg feed) was 1.381^B g feed/g gain and the Feed intake ([1]; Day 1-22, 10 g/kg feed) was 1430^A g. The Weight gain ([1]; Day 1-22, 10 g/kg feed) was 1036^AB g, the Feed conversion ([1]; Day 1-36, 2.5 g/kg feed) was 1.602^A g feed/g gain and the Feed intake ([1]; Day 1-36, 2.5 g/kg feed) was 3817^A g. For the same compound, the Weight gain ([1]; Day 1-36, 2.5 g/kg feed) was 2383^A g, the Feed conversion ([1]; Day 1-36, 5 g/kg feed) was 1.642^A g feed/g gain and the Feed intake ([1]; Day 1-36, 5 g/kg feed) was 3793^A g. The Weight gain ([1]; Day 1-36, 5 g/kg feed) was 2311^A g, the Feed conversion ([1]; Day 1-36, 7.5 g/kg feed) was 1.612^A g feed/g gain and the Feed intake ([1]; Day 1-36, 7.5 g/kg feed) was 3870^A g. The Weight gain ([1]; Day 1-36, 7.5 g/kg feed) was 2404^A g, the Feed conversion ([1]; Day 1-36, 10 g/kg feed) was 1.651^A g feed/g gain and the Feed intake ([1]; Day 1-36, 10 g/kg feed) was 3868^A g. For the same compound, the Weight gain ([1]; Day 1-36, 10 g/kg feed) was 2347^A g, the Feed conversion ([1]; Day 22-36, 2.5 g/kg feed) was 1.790^A g feed/g gain and the Feed intake ([1]; Day 22-36, 2.5 g/kg feed) was 2392^A g. The Weight gain ([1]; Day 22-36, 2.5 g/kg feed) was 1337^A g, the Feed conversion ([1]; Day 22-36, 5 g/kg feed) was 1.786^A g feed/g gain and the Feed intake ([1]; Day 22-36, 5 g/kg feed) was 2347^A g. For the same compound, the Weight gain ([1]; Day 22-36, 5 g/kg feed) was 1320^A g, the Feed conversion ([1]; Day 22-36, 7.5 g/kg feed) was 1.806^A g feed/g gain and the Feed intake ([1]; Day 22-36, 7.5 g/kg feed) was 2431^A g. The Weight gain ([1]; Day 22-36, 7.5 g/kg feed) was 1350^A g, the Feed conversion ([1]; Day 22-36, 10 g/kg feed) was 1.870^A g feed/g gain and the Feed intake ([1]; Day 22-36, 10 g/kg feed) was 2442^A g. The Weight gain ([1]; Day 22-36, 10 g/kg feed) was 1311^A g, the “numerical improvement of weight gain compared to the control” value ([1]; 2.5 g per kg feed) was 3.6% and the “numerical improvement of weight gain compared to the control” value ([1]; 7.5 g per kg feed) was 4.5%. For the same compound, the “improvement of weight gain compared to the control” value ([1]; starter period (day 1-22), across the different inclusion levels) was 3.9% to 10.5, the Daily feed intake ([2]; Day 0-14) was 368 g and the Daily feed intake ([2]; Day 14-24) was 649 g. For the same compound, the “Live weight of piglets” value ([2]; Day 14) was 12.01 kg, the Daily feed intake ([2]; Day 24-36) was 869 g and the “Live weight of piglets” value ([2]; Day 24) was 16.90 kg. For the same compound, the “Live weight of piglets” value ([2]; Final, day 36) was 24.32 kg, the “Live weight of piglets” value ([2]; Initial, day 0) was 8.51 kg and the Daily feed intake ([2]; Overall, day 0-36) was 613 g. The “reduction of feed intake versus control” value ([2]; day 0-14, dietary level of 1.0%) was −25.4%, the “DWG numerically higher than control group” value [3] was 5% and the Weight gain ([3]; group B, n = 24) was 6.57 ± 1.91 kg. For the same compound, the MIC90 [4] was < 31.2 mM, the MIC90 [5] was < 31.2 mM and the MIC90 [6] was < 31.2 mM. For the same compound, the MIC90 (Enterococcus faecalis) was < 31.2 mM.

In the case of `O=C(O)CC(O)(CC(=O)O)C(=O)O` [citric acid, reference compound], the MIC90 (Clostridium perfringens) was < 31.2 mM, the MIC90 [4] was < 31.2 mM and the MIC90 [5] was < 31.2 mM. The MIC90 [6] was < 31.2 mM and the MIC90 (Enterococcus faecalis) was < 31.2 mM.

Reference: US20110189347A1 (priority 2008, published 2011)
